Consider eight compounds from patent US9422246B2, “Benzylidene azolidine derivative or salt thereof” (ROHTO Pharmaceutical Co., Ltd., priority 2012, dated 2016).

The nature of series [1]: Evaluation of hydrophilicity (solubility in test solvent). It counts as physicochemical. To be noted: 25° C.; test solvent 10% by weight dipropylene glycol, 10% ethanol, 80% purified water. The procedure:
Test solvent: A mixed solvent containing 10% by weight of dipropylene glycol, 10% by weight of ethanol, and 80% by weight of purified water (based on 100% by weight of the total amount of dipropylene glycol, ethanol, and purified water).
Based on the difference in solubility, the hydrophilicity was evaluated as follows.
Particularly high hydrophilicity: A solubility of 1.0 or more (g/100 g test solvent)
High hydrophilicity: A solubility of 0.2 to less than 1.0 (g/100 g test solvent)
Low hydrophilicity: A solubility of 0.1 to less than 0.2 (g/100 g test solvent)
No hydrophilicity: A solubility of less than 0.1 (g/100 g test solvent) or the occurrence of suspended solids

Series [2] in a line: UV absorbing properties (UV spectrum in ethanol). It counts as physicochemical. To be noted: 5 ppm in ethanol, quartz cell 1 cm optical path length. Here is the method: The resulting compound 1 was dissolved at a concentration of 5 ppm in ethanol as a solvent to form a sample solution. After the prepared sample solution was injected into a quartz cell (1 cm in optical path length), the UV spectrum of the sample was measured with a spectrophotometer (UV-2450 manufactured by SHIMADZU CORPORATION), in which the maximal absorption wavelength (λmax) and the absorbance at the maximal absorption wavelength were determined. When the maximal absorption wavelength falls within the ultraviolet wavelength range, the higher absorbance at the maximal absorption wavelength indicates the better UV absorbing properties.

As for `CCCCC(CC)COC(=O)CCN1C(=O)NC(=Cc2ccc(OC)c(OC)c2)C1=O` (stereo not shown) [1′, 2-ethylhexyl dimethoxybenzylidene dioxoimidazolidine propionate, reference compound], in series [1], the Solubility was under 0.05 g/100 g test solvent.

Consider `O=C1NC(=Cc2ccc(OCCOCCO)cc2)C(=O)N1CCOCCO` [Compound 1, 5-[4-[2-(2-hydroxyethoxyl)ethoxy]benzylidene]-3-[2-(2-hydroxyethoxyl)ethyl]hydantoin], for which, in series [2], the “Absorbance at maximal absorption wavelength” value (shortened to “Absorbance”) stood at 0.43 and the “Maximal absorption wavelength (λmax)” value came out at 335 nm. This compound also returned a Solubility in series [1] of 2.0 g/100 g test solvent.

As for `O=C1C(=Cc2ccc(OCCOCCOCCO)cc2)N(CCOCCOCCO)C(=O)N1CCOCCOCCO` [Compound 2, 5-[4-[2-[2-(2-hydroxyethoxyl)ethoxy]ethoxy]benzylidene]-1,3-bis[2-[2-(2-hydroxyethoxyl)ethoxy]ethyl]hydantoin], in series [2], the “Absorbance” value is on record as 0.12 and the “Maximal absorption wavelength (λmax)” value is given as 325 nm. Further, the Solubility in series [1] is recorded as 25< g/100 g test solvent.

With `O=C(COc1ccc(C=C2NC(=O)N(CC(=O)N(CCO)CCO)C2=O)cc1)N(CCO)CCO` [Compound 3, 5-[4-[2-[bis(2-hydroxyethyl)amino]-2-oxoethoxy]benzylidene]-3-[2-[bis(2-hydroxyethyl)amino]-2-oxoethyl]hydantoin], in series [2], the “Absorbance” value came to 0.30 and the “Maximal absorption wavelength (λmax)” value was 336 nm. In series [1], this compound yielded a Solubility of 1.2 g/100 g test solvent.

As to `O=C(CCN1C(=O)NC(=Cc2ccc(OCCOCCO)cc2)C1=O)N(CCO)CCO` [Compound 4, 5-[4-[2-(2-hydroxyethoxyl)ethoxy]benzylidene]-3-[3-[bis(2-hydroxyethyl)amino]-3-oxopropyl]hydantoin], in series [2], the “Absorbance” value amounted to 0.34 and the “Maximal absorption wavelength (λmax)” value came to 338 nm. The compound further registered a Solubility in series [1] of 1.5 g/100 g test solvent.

Regarding `O=C(COc1ccc(C=C2NC(=O)N(CC(=O)OCCOCCO)C2=O)cc1)OCCOCCO` [Compound 5, 5-[4-[2-[2-(2-hydroxyethoxyl)ethoxy]-2-oxoethoxy]benzylidene]-3-[2-[2-(2-hydroxyethoxyl)ethoxy]-2-oxoethyl]hydantoin], in series [2], the “Absorbance” value was 0.20 and the “Maximal absorption wavelength (λmax)” value is recorded as 335 nm. Besides, the Solubility in series [1] was 0.2 g/100 g test solvent.

For `COc1ccc(C=C2C(=O)N(CC(=O)N(CCO)CCO)C(=O)N2CC(=O)N(CCO)CCO)cc1` [Compound 6, 5-(4-methoxybenzylidene]-1,3-bis[2-[bis(2-hydroxyethyl)amino]-2-oxoethyl]hydantoin], in series [2], the “Absorbance” value was found to be 0.18 and the “Maximal absorption wavelength (λmax)” value came to 328 nm. In addition, in series [1], the Solubility was 25< g/100 g test solvent.

With `COc1ccc(C=C2C(=O)N(CC(=O)OCCOCCO)C(=O)N2CC(=O)OCCOCCO)cc1` [Compound 7, 5-(4-methoxybenzylidene)-1,3-bis[2-[2-(2-hydroxyethoxy)ethoxy]-2-oxoethyl]hydantoin], in series [2], the “Absorbance” value is given as 0.14 and the “Maximal absorption wavelength (λmax)” value is given as 326 nm. Besides, the Solubility in series [1] is 25< g/100 g test solvent.
